# Reference: PubChem BioAssay (NCI)
#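 Cultured in 96-well plates, cells were exposed to test compound for 48 hours across five concentrations. TGI: total growth inhibition.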
# Assays:
# Assay in all cases: NCI anticancer screen, dose series, 48 h
# UACC-62 melanoma = system: UACC-62 melanoma
# SF-539 CNS = system: SF-539 CNS
# SK-MEL-5 melanoma = system: SK-MEL-5 melanoma
# HCT-116 colon = system: HCT-116 colon
# CAKI-1 renal = system: CAKI-1 renal
# MCF7 breast = system: MCF7 breast
# OVCAR-5 ovarian = system: OVCAR-5 ovarian
# SK-OV-3 ovarian = system: SK-OV-3 ovarian
# HCT-15 colon = system: HCT-15 colon
# NCI-H226 lung = system: NCI-H226 lung
# HS 578T breast = system: HS 578T breast
# PC-3 prostate = system: PC-3 prostate
# LOX IMVI melanoma = system: LOX IMVI melanoma
# TK-10 renal = system: TK-10 renal
# UACC-257 melanoma = system: UACC-257 melanoma
# CCRF-CEM leukemia = system: CCRF-CEM leukemia
# A549 NSCLC = system: A549 NSCLC
# COLO 205 colon = system: COLO 205 colon
# T-47D breast = system: T-47D breast
# SNB-75 CNS = system: SNB-75 CNS
# HT29 colon = system: HT29 colon
# SK-MEL-2 melanoma = system: SK-MEL-2 melanoma
# RPMI-8226 leukemia = system: RPMI-8226 leukemia
# OVCAR-4 ovarian = system: OVCAR-4 ovarian
# SK-MEL-28 melanoma = system: SK-MEL-28 melanoma
# DU-145 prostate = system: DU-145 prostate
# M14 melanoma = system: M14 melanoma
# HOP-92 NSCLC = system: HOP-92 NSCLC
# SW-620 colon = system: SW-620 colon
# HCC-2998 colon = system: HCC-2998 colon
# MDA-N = system: MDA-N
# SNB-19 CNS = system: SNB-19 CNS
# U251 CNS = system: U251 CNS
# SR leukemia = system: SR leukemia
# SF-268 CNS = system: SF-268 CNS
# HL-60(TB) leukemia = system: HL-60(TB) leukemia
# 786-0 renal = system: 786-0 renal
# K-562 leukemia = system: K-562 leukemia
# SN12C renal = system: SN12C renal
# OVCAR-3 ovarian = system: OVCAR-3 ovarian
# MDA-MB-435 = system: MDA-MB-435
# SF-295 CNS = system: SF-295 CNS
# NCI/ADR-RES ovarian = system: NCI/ADR-RES ovarian
# EKVX NSCLC = system: EKVX NSCLC
# IGROV1 ovarian = system: IGROV1 ovarian
# KM12 colon = system: KM12 colon
# MOLT-4 leukemia = system: MOLT-4 leukemia
# MDA-MB-231 breast = system: MDA-MB-231 breast
# NCI-H23 lung = system: NCI-H23 lung
# RXF 393 renal = system: RXF 393 renal
# NCI-H522 lung = system: NCI-H522 lung
# NCI-H460 lung = system: NCI-H460 lung
# OVCAR-8 ovarian = system: OVCAR-8 ovarian
# MALME-3M melanoma = system: MALME-3M melanoma
# HOP-62 NSCLC = system: HOP-62 NSCLC
# ACHN renal = system: ACHN renal
# A498 renal = system: A498 renal
# UO-31 renal = system: UO-31 renal
compound,measurement,setting,value
CN(C)CCCOC(=O)C(c1ccccc1)C1(O)CCSCC1 (stereo unspecified),TGI,UACC-62 melanoma,> 100 µM
same,TGI,SF-539 CNS,> 100 µM
same,TGI,SK-MEL-5 melanoma,> 100 µM
same,TGI,HCT-116 colon,> 100 µM
same,TGI,CAKI-1 renal,> 100 µM
same,TGI,MCF7 breast,> 100 µM
same,TGI,OVCAR-5 ovarian,> 100 µM
same,TGI,SK-OV-3 ovarian,> 100 µM
same,TGI,HCT-15 colon,> 100 µM
same,TGI,NCI-H226 lung,> 100 µM
same,TGI,HS 578T breast,> 100 µM
same,TGI,PC-3 prostate,> 100 µM
same,TGI,LOX IMVI melanoma,> 100 µM
same,TGI,TK-10 renal,> 100 µM
same,TGI,UACC-257 melanoma,> 100 µM
same,TGI,CCRF-CEM leukemia,> 100 µM
same,TGI,A549 NSCLC,> 100 µM
same,TGI,COLO 205 colon,> 100 µM
same,TGI,T-47D breast,> 100 µM
same,TGI,SNB-75 CNS,> 100 µM
same,TGI,HT29 colon,> 100 µM
same,TGI,SK-MEL-2 melanoma,> 100 µM
same,TGI,RPMI-8226 leukemia,> 100 µM
same,TGI,OVCAR-4 ovarian,> 100 µM
same,TGI,SK-MEL-28 melanoma,> 100 µM
same,TGI,DU-145 prostate,> 100 µM
same,TGI,M14 melanoma,> 100 µM
same,TGI,HOP-92 NSCLC,> 100 µM
same,TGI,SW-620 colon,> 100 µM
same,TGI,HCC-2998 colon,> 100 µM
same,TGI,MDA-N,> 100 µM
same,TGI,SNB-19 CNS,78.6 µM
same,TGI,U251 CNS,> 100 µM
same,TGI,SR leukemia,> 100 µM
same,TGI,SF-268 CNS,> 100 µM
same,TGI,HL-60(TB) leukemia,> 100 µM
same,TGI,786-0 renal,> 100 µM
same,TGI,K-562 leukemia,> 100 µM
same,TGI,SN12C renal,> 100 µM
same,TGI,OVCAR-3 ovarian,> 100 µM
same,TGI,MDA-MB-435,> 100 µM
same,TGI,SF-295 CNS,> 100 µM
same,TGI,NCI/ADR-RES ovarian,> 100 µM
same,TGI,EKVX NSCLC,> 100 µM
same,TGI,IGROV1 ovarian,> 100 µM
same,TGI,KM12 colon,> 100 µM
same,TGI,MOLT-4 leukemia,> 100 µM
same,TGI,MDA-MB-231 breast,> 100 µM
same,TGI,NCI-H23 lung,> 100 µM
same,TGI,RXF 393 renal,> 100 µM
same,TGI,NCI-H522 lung,> 100 µM
same,TGI,NCI-H460 lung,> 100 µM
same,TGI,OVCAR-8 ovarian,> 100 µM
same,TGI,MALME-3M melanoma,> 100 µM
same,TGI,HOP-62 NSCLC,> 100 µM
same,TGI,ACHN renal,> 100 µM
same,TGI,A498 renal,> 100 µM
same,TGI,UO-31 renal,> 100 µM
COc1ccccc1N/C(=C\C(=O)C(=O)NC12CC3CC(CC(C3)C1)C2)c1ccccc1,TGI,SF-539 CNS,> 10 µM
same,TGI,SK-MEL-5 melanoma,> 10 µM
same,TGI,CAKI-1 renal,> 10 µM
same,TGI,MCF7 breast,> 10 µM
same,TGI,OVCAR-5 ovarian,> 10 µM
same,TGI,SK-OV-3 ovarian,> 10 µM
same,TGI,HCT-15 colon,> 10 µM
same,TGI,NCI-H226 lung,> 10 µM
same,TGI,HS 578T breast,> 10 µM
same,TGI,PC-3 prostate,> 10 µM
same,TGI,LOX IMVI melanoma,> 10 µM
same,TGI,TK-10 renal,> 10 µM
same,TGI,UACC-257 melanoma,> 10 µM
same,TGI,CCRF-CEM leukemia,> 10 µM
same,TGI,COLO 205 colon,> 10 µM
same,TGI,T-47D breast,> 10 µM
same,TGI,SNB-75 CNS,> 10 µM
same,TGI,HT29 colon,> 10 µM
same,TGI,SK-MEL-2 melanoma,> 10 µM
same,TGI,RPMI-8226 leukemia,> 10 µM
same,TGI,OVCAR-4 ovarian,> 10 µM
same,TGI,SK-MEL-28 melanoma,> 10 µM
same,TGI,DU-145 prostate,> 10 µM
same,TGI,M14 melanoma,> 10 µM
same,TGI,SW-620 colon,> 10 µM
same,TGI,HCC-2998 colon,> 10 µM
same,TGI,MDA-N,> 10 µM
same,TGI,U251 CNS,> 10 µM
same,TGI,SR leukemia,> 10 µM
same,TGI,SF-268 CNS,> 10 µM
same,TGI,HL-60(TB) leukemia,> 10 µM
same,TGI,786-0 renal,> 10 µM
same,TGI,K-562 leukemia,> 10 µM
same,TGI,SN12C renal,> 10 µM
same,TGI,OVCAR-3 ovarian,> 10 µM
same,TGI,MDA-MB-435,> 10 µM
same,TGI,SF-295 CNS,> 10 µM
same,TGI,NCI/ADR-RES ovarian,> 10 µM
same,TGI,EKVX NSCLC,> 10 µM
same,TGI,IGROV1 ovarian,> 10 µM
same,TGI,KM12 colon,> 10 µM
same,TGI,MOLT-4 leukemia,> 10 µM
same,TGI,MDA-MB-231 breast,> 10 µM
same,TGI,NCI-H23 lung,> 10 µM
same,TGI,RXF 393 renal,> 10 µM
same,TGI,NCI-H522 lung,> 10 µM
same,TGI,NCI-H460 lung,> 10 µM
same,TGI,OVCAR-8 ovarian,> 10 µM
same,TGI,MALME-3M melanoma,> 10 µM
same,TGI,HOP-62 NSCLC,> 10 µM
same,TGI,ACHN renal,> 10 µM
same,TGI,A498 renal,> 10 µM
same,TGI,UO-31 renal,> 10 µM
